Data: PMC6556873, “Rapid Covalent-Probe Discovery by Electrophile-Fragment Screening” (Journal of the American Chemical Society, 2019)
Read-outs that look alike come from different tables or passages of the source.

Legend:
in vitro [1] = test: in vitro; design: species or system HB2, HEK293; conditions: human, ccd841 cells
in vitro [2] = test: in vitro; design: species or system HB2, CCD841; conditions: human, hek293 cells
PCAF = biological target: T1, PCAF (Homo sapiens, UniProt Q92831); design: Intact protein LC/MS covalent labelling, fragments in pools of five, 200 uM each, 4 °C; conditions: 24 h, 4 °C, pool of five; 200 µM; covalent
T1 construct: gene KAT2B
T1 sequence (Q92831 whole entry, the tested form may be a part): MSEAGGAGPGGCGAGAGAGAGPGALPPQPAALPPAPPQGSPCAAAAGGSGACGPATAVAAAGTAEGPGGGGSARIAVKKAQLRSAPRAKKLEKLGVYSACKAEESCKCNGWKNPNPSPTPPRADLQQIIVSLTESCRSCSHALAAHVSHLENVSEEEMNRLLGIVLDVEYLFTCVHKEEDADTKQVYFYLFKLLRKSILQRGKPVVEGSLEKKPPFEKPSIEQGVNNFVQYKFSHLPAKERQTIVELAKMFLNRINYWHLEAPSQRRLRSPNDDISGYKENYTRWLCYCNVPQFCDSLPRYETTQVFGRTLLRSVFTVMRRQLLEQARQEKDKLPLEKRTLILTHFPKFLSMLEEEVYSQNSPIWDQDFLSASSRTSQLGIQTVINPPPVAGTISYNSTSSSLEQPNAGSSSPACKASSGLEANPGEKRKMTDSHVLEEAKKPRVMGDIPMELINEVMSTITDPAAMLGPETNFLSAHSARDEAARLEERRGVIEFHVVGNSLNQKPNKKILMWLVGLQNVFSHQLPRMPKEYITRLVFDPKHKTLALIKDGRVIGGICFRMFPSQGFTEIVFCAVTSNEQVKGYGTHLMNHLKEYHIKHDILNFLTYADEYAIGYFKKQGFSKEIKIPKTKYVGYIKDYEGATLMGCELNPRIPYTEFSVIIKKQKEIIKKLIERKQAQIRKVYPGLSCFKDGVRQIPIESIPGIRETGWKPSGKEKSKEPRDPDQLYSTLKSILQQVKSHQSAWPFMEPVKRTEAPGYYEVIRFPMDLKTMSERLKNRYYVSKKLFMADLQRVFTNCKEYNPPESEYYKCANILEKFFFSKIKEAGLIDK

OTUB2 (OTUB2A) = biological target: T2, OTUB2 (OTUB2A) (Homo sapiens, UniProt Q96DC9); design: Intact protein LC/MS covalent labelling, fragments in pools of five, 200 uM each, 4 °C; conditions: 24 h, 4 °C, pool of five; 200 µM; covalent
T2 construct: full length residues 1-234, E. coli BL21(DE3)-R3, His tag removed by TEV, construct 27312 Da
T2 sequence (Q96DC9 1-234): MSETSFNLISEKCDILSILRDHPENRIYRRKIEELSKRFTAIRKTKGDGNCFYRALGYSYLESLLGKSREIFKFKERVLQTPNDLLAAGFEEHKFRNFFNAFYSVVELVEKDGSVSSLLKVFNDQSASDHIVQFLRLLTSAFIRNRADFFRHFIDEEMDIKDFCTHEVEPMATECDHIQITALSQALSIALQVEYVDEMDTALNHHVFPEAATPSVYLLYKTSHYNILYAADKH

NNMT (hNNMT) = biological target: T3, NNMT (hNNMT) (Homo sapiens, UniProt P40261); design: Intact protein LC/MS covalent labelling, fragments in pools of five, 200 uM each, 4 °C; conditions: 24 h, 4 °C, pool of five; 200 µM; covalent
T3 construct: wild type, N-terminal His6 tag kept (no cleavage described), E. coli, construct 31248 Da
T3 sequence (P40261 1-264): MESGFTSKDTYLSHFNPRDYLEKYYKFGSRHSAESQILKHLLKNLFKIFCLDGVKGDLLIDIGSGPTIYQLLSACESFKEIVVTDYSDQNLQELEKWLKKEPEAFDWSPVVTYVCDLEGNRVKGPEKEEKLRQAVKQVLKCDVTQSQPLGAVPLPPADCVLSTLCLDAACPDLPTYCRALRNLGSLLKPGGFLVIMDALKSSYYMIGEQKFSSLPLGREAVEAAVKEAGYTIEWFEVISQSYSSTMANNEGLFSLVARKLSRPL

NUDT7 = biological target: T4, NUDT7 (Homo sapiens, UniProt P0C024); design: Intact protein LC/MS covalent labelling, fragments in pools of five, 200 uM each, 4 °C; conditions: 24 h, 4 °C, pool of five; 200 µM; covalent
T4 construct: residues 14-235, E. coli, pNIC28-Bsa4, N-terminal His6 tag removed by TEV, construct 26672 Da
T4 sequence (P0C024 14-235): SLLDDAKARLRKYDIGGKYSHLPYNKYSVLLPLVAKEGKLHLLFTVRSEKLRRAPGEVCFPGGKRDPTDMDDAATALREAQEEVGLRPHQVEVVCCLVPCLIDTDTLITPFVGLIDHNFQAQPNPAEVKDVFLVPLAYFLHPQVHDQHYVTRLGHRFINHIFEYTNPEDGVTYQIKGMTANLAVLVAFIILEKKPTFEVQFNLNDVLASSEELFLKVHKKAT

BSA = biological target: T5, BSA (Bos taurus, UniProt P02769); design: Intact protein LC/MS covalent labelling, fragments in pools of five, 200 uM each, 4 °C; conditions: 24 h, 4 °C, pool of five; 200 µM; covalent
T5 construct: gene ALB
T5 sequence (P02769 whole entry, the tested form may be a part): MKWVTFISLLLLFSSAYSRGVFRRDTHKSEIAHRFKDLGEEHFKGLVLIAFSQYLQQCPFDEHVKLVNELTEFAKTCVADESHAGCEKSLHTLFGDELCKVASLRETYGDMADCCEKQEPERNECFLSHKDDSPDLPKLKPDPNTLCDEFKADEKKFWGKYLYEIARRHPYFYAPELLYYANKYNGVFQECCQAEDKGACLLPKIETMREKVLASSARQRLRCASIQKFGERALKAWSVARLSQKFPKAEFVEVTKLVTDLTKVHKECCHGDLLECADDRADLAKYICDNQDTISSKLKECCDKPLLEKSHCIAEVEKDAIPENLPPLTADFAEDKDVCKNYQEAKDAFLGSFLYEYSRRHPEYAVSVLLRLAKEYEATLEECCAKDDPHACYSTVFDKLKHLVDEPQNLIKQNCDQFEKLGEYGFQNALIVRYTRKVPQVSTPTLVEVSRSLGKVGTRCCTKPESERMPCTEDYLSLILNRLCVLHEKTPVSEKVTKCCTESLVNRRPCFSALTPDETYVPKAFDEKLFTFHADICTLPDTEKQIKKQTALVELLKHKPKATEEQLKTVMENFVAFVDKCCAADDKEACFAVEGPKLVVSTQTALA

in vitro [3] = test: in vitro; design: species or system CCD841, HEK293; conditions: human, hb2 cells, read-out: HB-2 Cells Viability (%)

Row | Structure (SMILES) | viability at 48 h, 10 µM (in vitro [1]) | viability at 48 h, 10 µM (in vitro [2]) | PCAF (PCAF) | OTUB2 (OTUB2 (OTUB2A)) | NNMT (NNMT (hNNMT)) | NUDT7 (NUDT7) | BSA (BSA) | viability at 48 h, 10 µM (in vitro [3])
1 | COc1ccc(C(=O)NC(=O)CCl)cc1 [PCM-0102454] | 103% | 96.7% | 0 | 0 | 0.36 | 0 | 0 | 97.1%
2 | O=C(CCl)Nc1nc2c(s1)CCC2 [PCM-0102457] | 61% | 43.3% | 0 | 0 | 0.59 | 0.37 | 0 | 42.3%
3 | O=C(CCl)Nc1nnc(-c2ccccc2)o1 [PCM-0102458] | 98% | 104% | 0 | 0.08 | 0.14 | 0 | 0 | 97.2%
4 | C=CC(=O)N1CCC(C(=O)O)(c2ccccc2)CC1 [PCM-0102459] | 98.8% | 110% | 0 | 0 | 0 | 0 | 0 | 103%
5 | O=C(CCl)NC(=O)c1cccc([N+](=O)[O-])c1 [PCM-0102460] | 95.9% | 117% | 0 | 0 | 0.12 | 0 | 0 | 99.8%
6 | O=C(CCl)NC(=O)C1COc2ccccc2O1 (centres unmarked) [PCM-0102462] | 102% | 99.1% | 0 | 0 | 0 | 0 | 0 | 103%
7 | O=C(CCl)NC(=O)c1ccccc1Br [PCM-0102464] | 113% | 107% | 0 | 0 | 0 | 0 | 0 | 104%
8 | C=CC(=O)N1CCC(CN)CC1.Cl [PCM-0102467] | 105% | 91% | 0 | 0 | 0 | 0 | 0 | 95.4%
9 | O=C(CCl)N=c1sccn1Cc1ccccc1 [PCM-0102469] | 5.2% | 7% | 0 | 0.11 | 0.25 | 0 | 0 | 42.3%
10 | N#CCN(C(=O)CCl)c1ccccc1 [PCM-0102471] | 24.4% | 16% | 0 | 0.19 | 0.25 | 0 | 0.18 | 43.7%
11 | C=CC(=O)N1CCC2(CCN(C)C2=O)CC1 [PCM-0102475] | 100% | 85.3% | 0 | 0 | 0 | 0 | 0 | 94.8%
12 | O=C(CCl)N1CCNCC1.O=C(O)C(F)(F)F [PCM-0102476] | 100% | 92.4% | 0 | 0 | 0 | 0 | 0 | 101%
13 | C=CC(=O)N1CCC(C(=O)Nc2cc(C)on2)CC1 [PCM-0102477] | 115% | 86.9% | 0 | 0 | 0 | 0 | 0 | 99.4%
14 | C=CC(=O)N1CCCC(n2nc(C)nc2C)C1 (centres unmarked) [PCM-0102479] | 111% | 98.5% | 0 | 0 | 0 | 0 | 0 | 101%
15 | C=CC(=O)N(C)C1CCCc2nc(CC)sc21 (centres unmarked) [PCM-0102483] | 103% | 97.3% | 0 | 0 | 0 | 0 | 0 | 98.1%
16 | C=CC(=O)N(C)C1CCCCNC1=O (centres unmarked) [PCM-0102484] | 101% | 122% | 0 | 0.11 | 0 | 0 | 0 | 95.7%
17 | C=CC(=O)NC(C)C(=O)N1CCc2ccccc21 (centres unmarked) [PCM-0102486] | 89.6% | 99% | 0 | 0 | 0 | 0 | 0 | 99.8%
18 | C=CC(=O)N1CCC(CN2C(=O)CNC2=O)C1 (centres unmarked) [PCM-0102488] | 114% | 100% | 0 | 0 | 0 | 0 | 0 | 96.6%
19 | C=CC(=O)N1CCNC(=O)C1c1c(F)cccc1Cl (centres unmarked) [PCM-0102490] | 95.5% | 104% | 0 | 0 | 0 | 0 | 0 | 98.5%
20 | N#CSc1ccc(NC(=O)CCl)c(Cl)c1 [PCM-0102506] | 33.4% | 51.9% | 0 | 0 | 0.38 | 0 | 0 | 20.6%
21 | C=CC(=O)N1CCCCC1C(=O)O (centres unmarked) [PCM-0102507] | 109% | 95.6% | 0 | 0 | 0 | 0 | 0 | 101%
22 | Cc1ccc([N+](=O)[O-])c(NC(=O)CCl)c1C [PCM-0102511] | 75.4% | 56.3% | 0 | 0.07 | 0 | 0.15 | 0 | 91.5%
23 | O=C(CCl)N1CCCCC1 [PCM-0102514] | 88.1% | 90.8% | 0 | 0 | 0 | 0 | 0 | 92.8%
24 | C=CC(=O)N1CCCCC1c1ncon1 (centres unmarked) [PCM-0102517] | 120% | 91.3% | 0 | 0 | 0 | 0 | 0 | 101%
25 | C=CC(=O)NC1CCC(c2nc(C)no2)CC1 (centres unmarked) [PCM-0102521] | 116% | 83% | 0 | 0.35 | 0 | 0 | 0 | 101%
